Experimental data taken from PubChem BioAssay (NCI).
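Assay format: 96-well plates, 48-hour exposure. At the GI50, growth is halved. TGI marks complete inhibition of growth.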

Assays:
Assay in all cases: inhibition of tumour cell growth, NCI panel, 48 h
XF 498 CNS = test system: XF 498 CNS
RXF-631 renal = test system: RXF-631 renal
DMS 114 small cell lung = test system: DMS 114 small cell lung
MDA-MB-231 breast = test system: MDA-MB-231 breast
HOP-18 NSCLC = test system: HOP-18 NSCLC
MDA-N = test system: MDA-N
BT-549 breast = test system: BT-549 breast
NCI/ADR-RES ovarian = test system: NCI/ADR-RES ovarian
KM20L2 colon = test system: KM20L2 colon

Structure (SMILES)	TGI (XF 498 CNS) [µM]	TGI (RXF-631 renal) [µM]	TGI (DMS 114 small cell lung) [µM]	TGI (MDA-MB-231 breast) [µM]	TGI (HOP-18 NSCLC) [µM]	TGI (MDA-N) [µM]	TGI (BT-549 breast) [µM]	TGI (NCI/ADR-RES ovarian) [µM]	TGI (KM20L2 colon) [µM]	GI50 (KM20L2 colon) [µM]	GI50 (XF 498 CNS) [µM]	GI50 (RXF-631 renal) [µM]	GI50 (DMS 114 small cell lung) [µM]	GI50 (HOP-18 NSCLC) [µM]
Cc1cc(Cl)cc2c1NC(=O)C2(O)CC(=O)c1ccco1 (stereo not given)	> 100	> 100	> 100	> 100	> 100	22.9	> 100	> 100	–	–	–	–	–	–
Cc1c(C(=O)C/C(=N/NC(=O)C[N+](C)(C)C)C(=O)Nc2ccc(Cl)cc2)[n+](=O)c2ccccc2n1O	> 100	> 100	> 100	–	> 100	–	–	–	> 100	–	–	–	–	–
CC(=O)OCC1OC(NC(=S)N/N=C2\CC(c3ccccc3)Oc3ccccc32)C(OC(C)=O)C(OC(C)=O)C1OC(C)=O (stereo not given)	> 100	> 100	> 100	–	> 100	–	–	–	> 100	–	–	–	–	–
Cc1ccc(NC(=O)CC(=O)n2nc(C)c(N=Nc3ccccc3C(=O)O)c2C)cc1	> 100	> 100	> 100	–	–	–	–	–	> 100	–	–	–	–	–
COc1ccc2c(c1)[n+](=O)c(C(=O)C/C(=N/OCCCc1ccccc1)C(=O)NC13CC4CC(CC(C4)C1)C3)c(C)n2[O-]	> 100	> 100	> 100	–	> 100	–	–	–	> 100	–	–	–	–	–
Nc1cccc(S(=O)(=O)NCC(=O)O)c1	> 100	> 100	> 100	–	> 100	–	–	–	> 100	–	–	–	–	–
O=[N+]([O-])c1ccc(C=NC2CCCCC2)cc1	> 100	> 100	> 100	–	> 100	–	–	–	> 100	–	–	–	–	–
COC1(OC)CC2OC1C1N=NN(C(=O)OC(C)(C)C)C21 (stereo not given)	> 100	> 100	> 100	–	> 100	–	–	–	> 100	–	–	–	–	–
CCC[CH2][Sn]1([CH2]CCC)[O]C(=O)CN=Cc2c(ccc3ccccc23)[O]1	> 100	0.0331	0.299	–	1.52	–	–	–	2.29	1.09	> 100	0.0181	0.139	0.223
NC(=O)COC(=O)c1c(Cl)nc2sccn12	> 100	> 100	> 83.8	–	> 100	–	–	–	> 100	–	–	–	–	–
O=C(N/C(=C\c1cccc([N+](=O)[O-])c1)c1nc2ccc([N+](=O)[O-])cc2[nH]1)c1ccccc1	59.8	> 100	–	–	–	–	–	–	> 100	–	–	–	–	–
O=C(CC1(O)C(=O)Nc2c(Cl)ccc(Cl)c21)c1ccc(F)cc1 (stereo not given)	77.1	> 100	52.1	–	> 100	–	–	–	> 100	–	–	–	–	–
